Assay results published in PubChem BioAssay (NCI).
“And” between values parts separate entries of the source, which are not always exact repeats. Equal values may be shown once.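 These data come from cells grown in 96-well plates and exposed to compound for 48 hours at five concentrations. Abbreviation: GI50, concentration required for 50% inhibition of growth. TGI: concentration producing complete growth inhibition.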

Columns and labels:
Assay in all cases: inhibition of tumour cell growth, NCI panel, 48 h
[1] = system: SF-268 CNS
[2] = system: OVCAR-4 ovarian
[3] = system: MOLT-4 leukemia
[4] = system: SNB-19 CNS
[5] = system: SN12C renal
[6] = system: RPMI-8226 leukemia
[7] = system: LOX IMVI melanoma
[8] = system: NCI-H522 lung
[9] = system: NCI-H226 lung
[10] = system: RXF 393 renal

SMILES | TGI [1] | TGI [2] | TGI [3] | TGI [4] | TGI [5] | TGI [6] | TGI [7] | GI50 [2] | TGI [8] | GI50 [9] [µM] | TGI [9] | TGI [10] | GI50 [4] | GI50 [5] | GI50 [6] [µM] | GI50 [7] | GI50 [10]
COC(=O)/C=C/c1cc(OC)c2oc(-c3ccc(OC)c(OC)c3)c(C(=O)OC)c2c1 | > 100 µM | > 100 µM | > 100 µM | > 100 µM | > 100 µM | > 100 µM | > 100 µM | – | – | – | – | – | – | – | – | – | –
Nc1ccc(-c2nc3ccc(F)cc3s2)cc1 | > 100 µM | > 100 µM | > 100 µM | > 100 µM | > 100 µM | 91.7 µM | > 100 µM | 23.1 µM | > 100 µM | 47 | > 100 µM | – | – | – | – | – | –
CN(CCc1ccc(Cl)c(Cl)c1)CCN(C)CCN1CCCC1 | 29.8 µM | > 100 µM | 20.1 µM | 43.3 µM | 40.2 µM | 8.97 µM | 20.1 µM | – | 20.9 µM | – | 38.5 µM | 26.6 µM | – | – | – | – | –
Oc1nc(N/N=C/c2ccccc2)[nH]c1/C=C1\C=Nc2ccccc21 | > 100 µM | > 100 µM | > 100 µM | > 100 µM | > 100 µM | > 100 µM | > 100 µM | – | > 100 µM | – | > 100 µM | > 100 µM | – | – | – | – | –
CCNc1ncnc2c1nnn2CC | – | > 100 µM | > 100 µM | > 100 µM | > 100 µM | > 100 µM | > 100 µM | – | > 100 µM | – | > 100 µM | > 100 µM | – | – | – | – | –
O=C(N/N=C/c1ccc(Cl)cc1)c1cc(I)cc(I)c1O | – | > 100 µM | > 100 µM | > 100 µM | > 100 µM | > 100 µM | > 100 µM | – | – | – | > 100 µM | > 100 µM | – | – | – | – | –
Cc1c(C#N)c2nnn(-c3ccccc3)c(=O)n2c1-c1ccccc1 | > 100 µM | > 100 µM | 30.5 µM | > 100 µM | > 56.8 µM | 14.8 µM | > 100 µM | – | – | – | > 100 µM | > 24.2 µM | – | – | – | – | –
Cc1ccc(OCC2OC(n3cnc4c(Cl)ncnc43)CC2Oc2ccc(C)cc2)cc1 (stereo not given) | 21.8 µM and 26.9 µM | 13.1 µM and > 56.6 µM | 12.7 µM and 7.95 µM | 6.86 µM and 33.4 µM | 15.3 µM and 36.6 µM | > 25 µM and 22.5 µM | 10.8 µM and > 45.9 µM | 2.57 µM and 10.6 µM | 6.66 µM and 3.82 µM | – | 31.7 µM and 44.1 µM | 10.6 µM and 37.2 µM | 2.8 µM and 17 µM | 7.49 µM and 17.5 µM | 3.03 | 2.41 µM and 15 µM | 2.85 µM and 10.9 µM
OC(CCN1CCN(CCOC(c2ccccc2)c2ccccc2)CC1)c1ccc(Br)cc1 (stereo not given) | 30.3 µM | 38.6 µM | – | 30.3 µM | 25.2 µM | – | 23.5 µM | – | 29.4 µM | – | 37.6 µM | 22.9 µM | – | – | – | – | –
C[C@@H]1CC[C@@H](C)[C@](C)(CCc2ccoc2)C/C=C\C=C/1C(=O)O | – | > 50 µM | > 50 µM | > 50 µM | > 50 µM | – | > 50 µM | – | – | – | > 50 µM | > 50 µM | – | – | – | – | –
